Measurements as given in patent US10307389B2, “Succinate prodrugs for use in the treatment of lactic acidosis or drug-induced side-effects due to Complex I-related impairment of mitochondrial oxidative phosphorylation” (NEUROVIVE PHARMACEUTICAL AB, priority 2014, dated 2019).
“Also recorded” adds a separate entry of the source.

Experiments:
[1] = test system: cells with inhibited respiratory complex I; test: Screening assay 1: enhancement of mitochondrial energy producing function in cells with inhibited respiratory complex I; format: cell-based, human; set-up: key: (+): Brackets [( )] indicate an intermediate effect, i.e. (+++) is between ++ and +++; graded either +, ++ or +++ in increasing order of potency; (++): Brackets [( )] indicate an intermediate effect, i.e. (+++) is between ++ and +++; graded either +, ++ or +++ in increasing order of potency; (+++) is between ++ and +++; graded either +, ++ or +++ in increasing order of potency; conditions: screening assay 1, complex I inhibited with rotenone 2 μM
Experimental: (§1) Measurement of mitochondrial respirationise performed in a high-resolution oxygraph (Oxygraph-2k, Oroboros Instruments, Innsbruck, Austria) at a constant temperature of 37° C. Isolated human platelets, white blood cells, fibroblasts, human heart muscle fibers or other cell types containing live mitochondria are suspended in a 2 mL glass chamber at a concentration sufficient to yield oxygen consumption in the medium of 10 pmol O2 s^−1 mL^−1.
Cells are placed in a buffer containing 110 mM sucrose, HEPES 20 mM, taurine 20 mM, K-lactobionate 60 mM, MgCl2 3 mM, KH2PO4 10 mM, EGTA 0.5 mM, BSA 1 g/l, pH 7.1. […] Compounds dissolved in DMSO are titrated in a range of 10 μM to 10 mM final concentration. Subsequently, cell membranes are permeabilised with digitonin (1 mg/1*10^6 plt) to allow entry of extracellularly released energy substrate or cell impermeable energy substrates. After stabilized respiration, Succinate 10 mM is added as a reference to enable respiration downstream of complex I. After the respiration stabilized the experiment is terminated by addition of Antimycin at final concentration 1 μg/mL and any residual non-mitochondrial oxygen consumption is measured. An increase in respiration rate in the described protocol is tightly coupled to ATP synthesis by oxidative phosphorylation unless cells are uncoupled (i.e. proton leak without production of ATP). Uncoupling is tested for by addition of the ATP synthase inhibitor oligomycin (1-2 μg mL^−1) in a protocol 3 where the extent of uncoupling corresponds to the respiratory rate following oligomycin addition.

intact cells [2] = test: Screening assay 3: uncoupling in intact cells; as to Uncoupling: level of oxygen consumption after addition of oligomycin: tested at 1000 µM; format: cell-based, human; set-up: key: (+): Brackets [( )] indicate an intermediate effect, i.e. (+++) is between ++ and +++; graded either +, ++ or +++ in increasing order of potency; (++): Brackets [( )] indicate an intermediate effect, i.e. (+++) is between ++ and +++; graded either +, ++ or +++ in increasing order of potency; (+++) is between ++ and +++; graded either +, ++ or +++ in increasing order of potency; conditions: for Uncoupling: level of oxygen consumption after addition of oligomycin: screening assay 3; for Convergent (Routine): increase in mitochondrial oxygen consumption: screening assay 3, 1 mM compound
Experimental: Measurement of mitochondrial respirationise performed in a high-resolution oxygraph (Oxygraph-2k, Oroboros Instruments, Innsbruck, Austria) at a constant temperature of 37° C. […] In the third protocol, the same buffer as described above is used. […] Subsequently, the ATP-synthase-inhibitor Oligomycin is added. A reduction in respiration is a measure of how much of the oxygen consumption that is coupled to ATP synthesis. No, or only a slight, reduction indicate that the compound is inducing a proton leak over the inner mitochondrial membrane. The uncoupler FCCP is then titrated to induce maximum uncoupled respiration. […] The experiment is terminated by the addition of 1 μg/mL of the complex III inhibitor Antimycin to measure non-mitochondrial oxygen consumption.

[3] = test system: intact human blood cells with inhibited complex I in human plasma; test: Screening assay 4: cells with inhibited respiratory complex I in human plasma; format: cell-based; set-up: key: (+): Brackets [( )] indicate an intermediate effect, i.e. (+++) is between ++ and +++; graded either +, ++ or +++ in increasing order of potency; (++): Brackets [( )] indicate an intermediate effect, i.e. (+++) is between ++ and +++; graded either +, ++ or +++ in increasing order of potency; (+++) is between ++ and +++; graded either +, ++ or +++ in increasing order of potency; conditions: screening assay 4, complex I inhibited
Experimental: Measurement of mitochondrial respirationise performed in a high-resolution oxygraph (Oxygraph-2k, Oroboros Instruments, Innsbruck, Austria) at a constant temperature of 37° C. […] Intact human blood cells are incubated in plasma from the same donor. […] The experiment is terminated by addition of Antimycin at final concentration 1 μg/mL and any residual non-mitochondrial oxygen consumption is measured.

intact cells [4] = test: Screening assay 2: enhancement and inhibition of mitochondrial energy producing function in intact cells (FCCP); format: cell-based, human; set-up: key to Convergent (FCCP): increase in mitochondrial oxygen consumption: (+): Brackets [( )] indicate an intermediate effect, i.e. (+++) is between ++ and +++; graded either +, ++ or +++ in increasing order of potency; (++): Brackets [( )] indicate an intermediate effect, i.e. (+++) is between ++ and +++; graded either +, ++ or +++ in increasing order of potency; (+++) is between ++ and +++; graded either +, ++ or +++ in increasing order of potency; conditions: for Toxicity: lowest concentration during compound titration at which a decrease in oxygen consumption is seen: screening assay 2; for Convergent (FCCP): increase in mitochondrial oxygen consumption: screening assay 2, uncoupled conditions
Experimental: as §1
In the second protocol the same buffer is used as described above. After basal respiration is established, the mitochondrial uncoupler FCCP is added at a concentration of 2 nM to increase metabolic demand.

intact human platelets = test: Intervention on rotenone- or metformin-induced lactate production with cell-permeable succinate prodrugs; format: cell-based; conditions: for effect on rotenone-induced lactate production: 2 μM rotenone, repeated additions of 250 μM; for effect on metformin-induced lactate production: 10 mM metformin, additions of 250 μM each 30 minutes
Experimental: Lactate levels are determined every 30 min using the Lactate Pro™ 2 blood lactate test meter (Arkray, Alere A B, Lidingö, Sweden) or similar types of measurements. Incubation is performed at 37° C. pH is measured at start, after 4 and after 8 h (or more frequently) of incubation using a Standard pH Meter, e.g. PHM210 (Radiometer, Copenhagen, Denmark). Drug candidates are added to the assay from start or following 30-60 min at concentrations within the range 10 μM-5 mM. […] In order to evaluate the specificity of the drug candidate, it is also tested in combination with a down-stream inhibitor of respiration such as the complex III inhibitor Antimycin at 1 μg/mL, which should abolish the effect of the drug candidate and restore the production of lactate.
Lactate levels were measured in intervals of 30 min with the onset of the experiment.

Row | Compound | CII: increase in mitochondrial oxygen consumption [1] | Uncoupling: level of oxygen consumption after addition of oligomycin (intact cells [2]) | Convergent (Routine): increase in mitochondrial oxygen consumption (intact cells [2]) | CII (plasma): increase in mitochondrial oxygen consumption [3] | Toxicity: lowest concentration during compound titration at which a decrease in oxygen consumption is seen (intact cells [4]) [mM] | Convergent (FCCP): increase in mitochondrial oxygen consumption (intact cells [4]) | effect on rotenone-induced lactate production (intact human platelets) | effect on metformin-induced lactate production (intact human platelets)
1 | CCC(=O)N[C@@H](CSC(=O)CCC(=O)O)C(=O)O [Compound 01-041, (R)-4-(2-carboxy-2-propionamidoethylthio)-4-oxobutanoic acid] | ++ | (+) | + | + | 5 | +++ |  | 
2 | CC(=O)NCCSC(=O)CCC(=O)O [Compound 01-108, 4-(2-acetamidoethylthio)-4-oxobutanoic acid] | (++) | + | ++ | (+) | 10 | ++ |  | 
3 | CCC(=O)NCCSC(=O)CCC(=O)O [Compound 01-114, 4-oxo-4-(2-propionamidoethylthio)butanoic acid] | ++ | (+) | +++ | + | 10 | ++ |  | 
4 | CC(=O)OC(CCCOC(=O)CCC(=O)O)OC(=O)CCC(=O)O (centres unmarked) [Compound 01-134] | (+) | (+) | ++ | (+) | 10 | (+) |  | 
5 | CC(=O)OC(CCCN1C(=O)c2ccccc2C1=O)OC(=O)CCC(=O)O (centres unmarked) [Compound 01-150, 4-(1-acetoxy-4-(1,3-dioxoisoindolin-2-yl)butoxy)-4-oxobutanoic acid] | ++ | (+) | +++ | (+) | 2 | + |  | 
6 | CCC(=O)N[C@@H](CSC(=O)CCC(=O)SC[C@H](NC(=O)CC)C(=O)N(CC)CC)C(=O)N(CC)CC [Compound 01-185, S,S-bis((R)-3-(diethylamino)-3-oxo-2-propionamidopropyl) butanebis(thioate)] | + | (+) | (+) | + | 2 | + |  | 
7 | CC(=O)NCC(C)(C)SC(=O)CCC(=O)O [Compound 01-188, 4-(1-acetamido-2-methylpropan-2-ylthio)-4-oxobutanoic acid] | + | (+) | +++ | + | 5 | +++ |  | 
8 | CCN(CC)C(=O)COCCSC(=O)CCC(=O)O [Compound 01-193, 4-(2-(2-(diethylamino)-2-oxoethoxy)ethylthio)-4-oxobutanoic acid] | + | + | (++) | (+) | 5 | + |  | 
9 | CCC(=O)N[C@@H](CSC(=O)CCC(=O)SC[C@H](NC(=O)CC)C(=O)OC)C(=O)OC [Compound 01-205, (R)-methyl 3-(4-((R)-3-methoxy-3-oxo-2-propionamidopropylthio)-4-oxobutanoylthio)-2-propionamidopropanoate] | ++ | (+) | +++ | + | 5 | ++ |  | 
10 | CC(=O)OC(C)OC(=O)CCC(=O)OC(C)OC(C)=O (centres unmarked) [NV189, Succinic acid bis-(1-acetoxy-ethyl) ester] |  |  |  |  |  |  | attenuated; also recorded: brought back to normal | significantly decreased
11 | CC(=O)OCOC(=O)CCC(=O)OC(C)OC(C)=O (centres unmarked) [NV241, Succinic acid 1-acetoxy-ethyl ester acetoxymethyl ester] |  |  |  |  |  |  | attenuated | significantly decreased
12 | succinate [reference compound] |  |  |  |  |  |  |  | did not change this; also recorded: did not reduce
